Patent US8093035B2, “Pseudomonas sp. strain and method of producing chitinase, chitosanase and nattokinase using the same” (Tamkang University, priority 2008, dated 2012)
Values joined by “and” are separate entries in the source; they are usually repeats but may differ in a detail not shown here. Equal entries are not always repeated. “Also recorded” adds a separate entry of the source. Where two headings read alike, the source gives them in different places.

Key:
[1] = tested on: TKU015 nattokinase; assay type: biochemical, Pseudomonas sp. TKU015; settings: for Effect on TKU015 nattokinase activity: metal ion or inhibitor added
[2] = tested on: nattokinase; settings: ion added; cited from earlier work
[3] = tested on: chitosanase; assay type: biochemical, Pseudomonas sp. TKU015
Experimental: (§1) In order to produce chitinase and chitosanase, generally, TKU015 is cultured in a liquid shaking culture medium (pH 8) including 0.5% by weight of SSP, 0.1% by weight of K2HPO4 and 0.05% by weight of MgSO4.7H2O for 3 days at 30° C. The obtained fermented supernatant is purified with ammonia sulfate precipitation, DEAE-Sepharose chromatography, Phenyl-Sepharose chromatography, and Sephacryl S-100 chromatography in sequence, and a chitinase and a chitosanase is obtained.
(§2) Pseudomonas sp. TKU015 is cultured in a liquid medium (100 mL/250 mL), which employ shrimp shell powder as carbon/nitrogen source, for 2-3 days at 30° C., and chitinase, chitosanase and nattokinase activity are tested in the medium.

[4] = tested on: san-ai protease; settings: in the presence of solvent; cited from earlier work
[5] = tested on: TKU015 nattokinase; test: Influence of organic solvents on TKU015 nattokinase activity at different temperature (ten days); assay type: biochemical, Pseudomonas sp. TKU015; settings: mixed with solvent, 100% represents 15 FU/mL
Experimental: (§3) With respect to thermal stability, TKU015 nattokinase is mixed with different solvents and then respectively placed for ten days at 25° C. and 4° C.

[6] = tested on: TKU015 nattokinase; test: Influence of organic solvents on activity of TKU015 nattokinase; assay type: biochemical, Pseudomonas sp. TKU015; settings: in the presence of organic solvent; for Relative activity(%) TKU015 nattokinase: 100% represents 20 FU/mL
Experimental: Protease activity of the supernatant obtained from culture medium of chitinase (cultured in a liquid shaking culture medium (pH 8) including 0.5% by weight of SSP, 0.1% by weight of K2HPO4 and 0.05% by weight of MgSO4.7H2O for 3 days at 30° C.) is respectively tested using casein and N-succinyl-Ala-Ala-Pro-Phe-pNa as substrate.
as §3

[7] = target: Pseudomonas aeruginosa PseA protease (Pseudomonas aeruginosa, UniProt P14756); settings: cited from earlier work; for Effect of solvent on PseA protease activity: in the presence of solvent
[8] = target: PST-01 protease (Pseudomonas aeruginosa, UniProt P14756); settings: in the presence of solvent; cited from earlier work
[9] = tested on: chitinase; test: Influence of metal ions and organic solvents on TKU015 chitinase activity; assay type: biochemical, Pseudomonas sp. TKU015
Experimental: as §1, §2

[10] = tested on: TKU015 nattokinase; test: Influence of surfactants on TKU015 nattokinase activity; assay type: biochemical, Pseudomonas sp. TKU015; settings: for Relative activity (%) Nattokinase: 100% represents 18 FU/mL
[11] = concentration 5 mM, 100% represents 19 FU/mL
[12] = after placed for 10 days at 25° C.
[13] = concentration 10 mM, 100% represents 19 FU/mL
[14] = after placed for 10 days at 4° C.
[15] = after placed for 10 days, temperature not given

Sequence of Pseudomonas aeruginosa PseA protease (P14756 198-498): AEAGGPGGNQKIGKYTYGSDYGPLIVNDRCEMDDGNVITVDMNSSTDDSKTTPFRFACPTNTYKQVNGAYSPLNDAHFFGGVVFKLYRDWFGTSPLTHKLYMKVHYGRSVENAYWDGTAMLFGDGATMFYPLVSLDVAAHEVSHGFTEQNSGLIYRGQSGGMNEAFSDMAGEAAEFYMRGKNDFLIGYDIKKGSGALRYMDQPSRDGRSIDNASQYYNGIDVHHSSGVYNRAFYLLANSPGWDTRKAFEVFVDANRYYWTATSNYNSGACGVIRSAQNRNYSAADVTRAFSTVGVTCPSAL
Sequence of PST-01 protease (P14756 198-498): as above

[Al+3] [Al^3+]
Relative activity (%) Nattokinase [1, 11]: 101%

[Ba+2] [Ba^2+]
Relative activity (%) Nattokinase [1, 11]: 109%

[Ca+2] [Ca^2+]
Relative activity (%) Nattokinase [1, 11]: 108% | Effect on TKU015 nattokinase activity [1]: does not | Effect of metal ion on nattokinase activity [2]: increased activity

[Cu+2] [Cu^2+]
Relative activity (%) Nattokinase [1, 11]: 95% | Effect on TKU015 nattokinase activity [1]: does not | Effect of metal ions and PMSF on chitosanase activity [3]: inhibited | Effect of metal ion on nattokinase activity [2]: increased activity

CN(C)C=O [DMF, N,N-dimethylformamide]
Effect of solvent on san-ai protease activity [4]: doesn't change | Relative activity(%) TKU015 nattokinase ([5]; placed ten days at 4 ° C.): 120% | Relative activity(%) TKU015 nattokinase ([5]; placed ten days at 25 ° C.): 98% | Organic solvent resistance of chitosanase [3, 12]: don't affect activity | Relative activity(%) TKU015 nattokinase [6]: 80% and 64% | Effect of solvent on PseA protease activity [7]: doesn't change | Effect of solvent on PST-01 protease activity [8]: doesn't change | Organic solvent resistance of chitinase [9, 12]: don't affect activity

C[S+](C)[O-] [DMSO]
Relative activity(%) TKU015 nattokinase ([5]; placed ten days at 4 ° C.): 90% | Relative activity(%) TKU015 nattokinase ([5]; placed ten days at 25 ° C.): 94% | Relative activity(%) TKU015 nattokinase [6]: 80%

O=C(O)CN(CCN(CC(=O)O)CC(=O)O)CC(=O)O [EDTA]
Relative activity (%) Nattokinase [1]: 117%

[Fe+2] [Fe^2+]
Relative activity (%) Nattokinase [1, 11]: 232% | Relative activity (%) Nattokinase [1, 13]: 156% | Effect on TKU015 nattokinase activity [1]: improve activity; also recorded: increase its activity | Effect of metal ions on chitinase activity [9]: inhibited; also recorded: prohibited

[Mg+2] [Mg^2+]
Relative activity (%) Nattokinase [1, 11]: 104% | Effect on TKU015 nattokinase activity [1]: does not | Effect of metal ion on nattokinase activity [2]: increased activity

[Mn+2] [Mn^2+]
Relative activity (%) Nattokinase [1, 11]: 102% | Effect of metal ions and PMSF on chitosanase activity [3]: inhibited | Effect of metal ions on chitinase activity [9]: inhibited; also recorded: prohibited

O=S(=O)(F)Cc1ccccc1 [PMSF, phenylmethanesulfonyl fluoride]
Relative activity (%) Nattokinase [1, 11]: 45% | Relative activity (%) Nattokinase [1, 13]: 0% | Effect on TKU015 nattokinase activity [1]: completely inhibited | Effect of metal ions and PMSF on chitosanase activity [3]: inhibited

CCCCCCCCCCCCOS(=O)(=O)[O-].[Na+] [SDS]
TKU015 nattokinase remaining activity ([10]; concentration 0.5, 1, or 2 mM (one value in text)): 50% | Relative activity (%) Nattokinase ([10]; surfactant 0.5 mM): 66% | Relative activity (%) Nattokinase ([10]; surfactant 1 mM): 56% | Relative activity (%) Nattokinase ([10]; surfactant 2 mM): 56% | Remaining activity of PseA protease ([7]; concentration 0.1%): 61%

[Zn+2] [Zn^2+]
Relative activity (%) Nattokinase [1, 11]: 94%

CC(C)=O [acetone]
Relative activity(%) TKU015 nattokinase ([5]; placed ten days at 4 ° C.): 128% | Relative activity(%) TKU015 nattokinase ([5]; placed ten days at 25 ° C.): 108% | Organic solvent resistance of chitosanase [3, 14]: can affect activity | Relative activity(%) TKU015 nattokinase [6]: 150% | Activity of PST-01 protease [8]: 200% | Effect of solvent on PST-01 protease activity [8]: doesn't change | Organic solvent resistance of chitinase [9, 15]: can affect activity

CC#N [acetonitrile]
Relative activity(%) TKU015 nattokinase ([5]; placed ten days at 4 ° C.): 90% | Relative activity(%) TKU015 nattokinase ([5]; placed ten days at 25 ° C.): 80% | Effect of organic solvent on chitosanase activity [3]: can affect activity | Relative activity(%) TKU015 nattokinase [6]: 88% | Organic solvent resistance of chitinase [9, 15]: can affect activity

CCO [ethanol]
Relative activity(%) TKU015 nattokinase ([5]; placed ten days at 4 ° C.): 114% | Relative activity(%) TKU015 nattokinase ([5]; placed ten days at 25 ° C.): 88% | Relative activity(%) TKU015 nattokinase [6]: 65%

CCOC(C)=O [ethyl acetate]
Relative activity(%) TKU015 nattokinase ([5]; placed ten days at 4 ° C.): 118% | Relative activity(%) TKU015 nattokinase ([5]; placed ten days at 25 ° C.): 92% | Relative activity(%) TKU015 nattokinase [6]: 70%

CCOCC [ethyl ether]
Relative activity(%) TKU015 nattokinase ([5]; placed ten days at 4 ° C.): 98% | Relative activity(%) TKU015 nattokinase ([5]; placed ten days at 25 ° C.): 70% | Organic solvent resistance of chitosanase [3, 14]: can affect activity | Inhibition of TKU015 nattokinase activity [6]: 50% | Relative activity(%) TKU015 nattokinase [6]: 43% | Organic solvent resistance of chitinase [9, 15]: can affect activity

CCCCCC [hexane]
Relative activity(%) TKU015 nattokinase [6]: 66%

CC(C)CCO [isoamylalcohol]
Relative activity(%) TKU015 nattokinase ([5]; placed ten days at 4 ° C.): 88% | Relative activity(%) TKU015 nattokinase ([5]; placed ten days at 25 ° C.): 100% | Relative activity(%) TKU015 nattokinase [6]: 60%

CC(C)O [isopropylalcohol]
Relative activity(%) TKU015 nattokinase ([5]; placed ten days at 4 ° C.): 115% | Relative activity(%) TKU015 nattokinase ([5]; placed ten days at 25 ° C.): 120% | Relative activity(%) TKU015 nattokinase [6]: 68%

CO [methanol]
Relative activity(%) TKU015 nattokinase ([5]; placed ten days at 4 ° C.): 116% | Relative activity(%) TKU015 nattokinase ([5]; placed ten days at 25 ° C.): 90% | Effect of organic solvent on TKU015 nattokinase activity [6]: do not affect | Relative activity(%) TKU015 nattokinase [6]: 96%

Cc1ccccc1 [toluene]
Relative activity(%) TKU015 nattokinase ([5]; placed ten days at 4 ° C.): 120% | Relative activity(%) TKU015 nattokinase ([5]; placed ten days at 25 ° C.): 100% | Organic solvent resistance of chitosanase [3, 12]: don't affect activity | Effect of organic solvent on TKU015 nattokinase activity [6]: do not affect | Relative activity(%) TKU015 nattokinase [6]: 106% | Effect of solvent on PseA protease activity [7]: doesn't change | Effect of solvent on PST-01 protease activity [8]: doesn't change | Organic solvent resistance of chitinase [9, 12]: don't affect activity

Triton X-100
Relative activity (%) Nattokinase ([10]; surfactant 0.5 % (v/v)): 160% | Relative activity (%) Nattokinase ([10]; surfactant 1 % (v/v)): 206% | Relative activity (%) Nattokinase ([10]; surfactant 2 % (v/v)): 344% | Effect on PseA protease activity ([7]; concentration 0.1% or 0.5%): doesn't change

Tween 40
Relative activity (%) Nattokinase ([10]; surfactant 0.5 % (v/v)): 94% | Relative activity (%) Nattokinase ([10]; surfactant 1 % (v/v)): 70% | Relative activity (%) Nattokinase ([10]; surfactant 2 % (v/v)): 82%

butanol
Relative activity(%) TKU015 nattokinase ([5]; placed ten days at 4 ° C.): 125% | Relative activity(%) TKU015 nattokinase ([5]; placed ten days at 25 ° C.): 85% | Relative activity(%) TKU015 nattokinase [6]: 70%

xylene
Relative activity(%) TKU015 nattokinase ([5]; placed ten days at 4 ° C.): 126% | Relative activity(%) TKU015 nattokinase ([5]; placed ten days at 25 ° C.): 96% | Organic solvent resistance of chitosanase [3, 12]: don't affect activity | Effect of organic solvent on TKU015 nattokinase activity [6]: do not affect | Relative activity(%) TKU015 nattokinase [6]: 96% | Organic solvent resistance of chitinase [9, 12]: don't affect activity
